In brackets after ≈: the same amount, converted by molar mass.
tested on: Enterococcus faecalis; test: Antibacterial activity against Enterococcus faecalis assessed as inhibition of visible bacterial growth incubated for 24 hrs by CLSI based broth microdilution method; format: functional

Structure (SMILES)	MIC
C=C[C@]1(C)C[C@@H](OC(=O)CSc2nc(OC(=O)c3ccccc3)cs2)[C@]2(C)[C@H](C)CC[C@]3(CCC(=O)[C@H]32)[C@@H](C)[C@@H]1O	> 32 µg/mL
C=C[C@]1(C)C[C@@H](OC(=O)CSc2nc(OC(=O)c3cccc(OC)c3)cs2)[C@]2(C)[C@H](C)CC[C@]3(CCC(=O)[C@H]32)[C@@H](C)[C@@H]1O	> 32 µg/mL
C=C[C@]1(C)C[C@@H](OC(=O)CSc2nc(OC(=O)c3cccc(Br)c3)cs2)[C@]2(C)[C@H](C)CC[C@]3(CCC(=O)[C@H]32)[C@@H](C)[C@@H]1O	> 32 µg/mL
C=C[C@]1(C)C[C@@H](OC(=O)CSc2nc(OC(=O)c3cccc(Cl)c3)cs2)[C@]2(C)[C@H](C)CC[C@]3(CCC(=O)[C@H]32)[C@@H](C)[C@@H]1O	> 32 µg/mL
C=C[C@]1(C)C[C@@H](OC(=O)CSc2nc(OC(=O)C3CCCCC3)cs2)[C@]2(C)[C@H](C)CC[C@]3(CCC(=O)[C@H]32)[C@@H](C)[C@@H]1O	> 32 µg/mL
C=C[C@]1(C)C[C@@H](OC(=O)CSc2nc(OC(=O)C3CCC3)cs2)[C@]2(C)[C@H](C)CC[C@]3(CCC(=O)[C@H]32)[C@@H](C)[C@@H]1O	> 32 µg/mL
C=C[C@]1(C)C[C@@H](OC(=O)CSc2nc(OC(=O)c3ccccc3Br)cs2)[C@]2(C)[C@H](C)CC[C@]3(CCC(=O)[C@H]32)[C@@H](C)[C@@H]1O	> 32 µg/mL

tested on: Mycoplasma; test: Antibacterial activity against Mycoplasma F3 assessed as inhibition of visible bacterial growth incubated for 24 hrs by CLSI based broth microdilution method; format: functional

Structure (SMILES)	MIC
C=C[C@]1(C)C[C@@H](OC(=O)CSc2nc(OC(=O)c3ccccc3)cs2)[C@]2(C)[C@H](C)CC[C@]3(CCC(=O)[C@H]32)[C@@H](C)[C@@H]1O	0.25 µg/mL (≈ 0.418 µM)
C=C[C@]1(C)C[C@@H](OC(=O)CSc2nc(OC(=O)c3cccc(OC)c3)cs2)[C@]2(C)[C@H](C)CC[C@]3(CCC(=O)[C@H]32)[C@@H](C)[C@@H]1O	0.25 µg/mL (≈ 0.398 µM)
C=C[C@]1(C)C[C@@H](OC(=O)CSc2nc(OC(=O)c3cccc(Br)c3)cs2)[C@]2(C)[C@H](C)CC[C@]3(CCC(=O)[C@H]32)[C@@H](C)[C@@H]1O	0.25 µg/mL (≈ 0.369 µM)
C=C[C@]1(C)C[C@@H](OC(=O)CSc2nc(OC(=O)c3cccc(Cl)c3)cs2)[C@]2(C)[C@H](C)CC[C@]3(CCC(=O)[C@H]32)[C@@H](C)[C@@H]1O	0.25 µg/mL (≈ 0.395 µM)
C=C[C@]1(C)C[C@@H](OC(=O)CSc2nc(OC(=O)C3CCCCC3)cs2)[C@]2(C)[C@H](C)CC[C@]3(CCC(=O)[C@H]32)[C@@H](C)[C@@H]1O	0.5 µg/mL (≈ 0.828 µM)
C=C[C@]1(C)C[C@@H](OC(=O)CSc2nc(OC(=O)C3CCC3)cs2)[C@]2(C)[C@H](C)CC[C@]3(CCC(=O)[C@H]32)[C@@H](C)[C@@H]1O	0.5 µg/mL (≈ 0.868 µM)
C=C[C@]1(C)C[C@@H](OC(=O)CSc2nc(OC(=O)c3ccccc3Br)cs2)[C@]2(C)[C@H](C)CC[C@]3(CCC(=O)[C@H]32)[C@@H](C)[C@@H]1O	0.5 µg/mL (≈ 0.739 µM)

tested on: Escherichia coli; test: Antibacterial activity against Escherichia coli ATCC 25922 assessed as inhibition of visible bacterial growth incubated for 24 hrs by CLSI based broth microdilution method; format: functional

Structure (SMILES)	MIC
C=C[C@]1(C)C[C@@H](OC(=O)CSc2nc(OC(=O)c3ccccc3)cs2)[C@]2(C)[C@H](C)CC[C@]3(CCC(=O)[C@H]32)[C@@H](C)[C@@H]1O	> 32 µg/mL
C=C[C@]1(C)C[C@@H](OC(=O)CSc2nc(OC(=O)c3cccc(OC)c3)cs2)[C@]2(C)[C@H](C)CC[C@]3(CCC(=O)[C@H]32)[C@@H](C)[C@@H]1O	> 32 µg/mL
C=C[C@]1(C)C[C@@H](OC(=O)CSc2nc(OC(=O)c3cccc(Br)c3)cs2)[C@]2(C)[C@H](C)CC[C@]3(CCC(=O)[C@H]32)[C@@H](C)[C@@H]1O	> 32 µg/mL
C=C[C@]1(C)C[C@@H](OC(=O)CSc2nc(OC(=O)c3cccc(Cl)c3)cs2)[C@]2(C)[C@H](C)CC[C@]3(CCC(=O)[C@H]32)[C@@H](C)[C@@H]1O	> 32 µg/mL
C=C[C@]1(C)C[C@@H](OC(=O)CSc2nc(OC(=O)C3CCCCC3)cs2)[C@]2(C)[C@H](C)CC[C@]3(CCC(=O)[C@H]32)[C@@H](C)[C@@H]1O	> 32 µg/mL
C=C[C@]1(C)C[C@@H](OC(=O)CSc2nc(OC(=O)C3CCC3)cs2)[C@]2(C)[C@H](C)CC[C@]3(CCC(=O)[C@H]32)[C@@H](C)[C@@H]1O	> 32 µg/mL
C=C[C@]1(C)C[C@@H](OC(=O)CSc2nc(OC(=O)c3ccccc3Br)cs2)[C@]2(C)[C@H](C)CC[C@]3(CCC(=O)[C@H]32)[C@@H](C)[C@@H]1O	> 32 µg/mL

tested on: Staphylococcus aureus; test: Antibacterial activity against Staphylococcus aureus ATCC 25923 assessed as inhibition of visible bacterial growth incubated for 24 hrs by CLSI based broth microdilution method; format: functional

Structure (SMILES)	MIC
C=C[C@]1(C)C[C@@H](OC(=O)CSc2nc(OC(=O)c3ccccc3)cs2)[C@]2(C)[C@H](C)CC[C@]3(CCC(=O)[C@H]32)[C@@H](C)[C@@H]1O	0.5 µg/mL (≈ 0.836 µM)
C=C[C@]1(C)C[C@@H](OC(=O)CSc2nc(OC(=O)c3cccc(OC)c3)cs2)[C@]2(C)[C@H](C)CC[C@]3(CCC(=O)[C@H]32)[C@@H](C)[C@@H]1O	1 µg/mL (≈ 1.59 µM)
C=C[C@]1(C)C[C@@H](OC(=O)CSc2nc(OC(=O)c3cccc(Br)c3)cs2)[C@]2(C)[C@H](C)CC[C@]3(CCC(=O)[C@H]32)[C@@H](C)[C@@H]1O	2 µg/mL (≈ 2.96 µM)
C=C[C@]1(C)C[C@@H](OC(=O)CSc2nc(OC(=O)c3cccc(Cl)c3)cs2)[C@]2(C)[C@H](C)CC[C@]3(CCC(=O)[C@H]32)[C@@H](C)[C@@H]1O	0.25 µg/mL (≈ 0.395 µM)
C=C[C@]1(C)C[C@@H](OC(=O)CSc2nc(OC(=O)C3CCCCC3)cs2)[C@]2(C)[C@H](C)CC[C@]3(CCC(=O)[C@H]32)[C@@H](C)[C@@H]1O	1 µg/mL (≈ 1.66 µM)
C=C[C@]1(C)C[C@@H](OC(=O)CSc2nc(OC(=O)C3CCC3)cs2)[C@]2(C)[C@H](C)CC[C@]3(CCC(=O)[C@H]32)[C@@H](C)[C@@H]1O	1 µg/mL (≈ 1.74 µM)
C=C[C@]1(C)C[C@@H](OC(=O)CSc2nc(OC(=O)c3ccccc3Br)cs2)[C@]2(C)[C@H](C)CC[C@]3(CCC(=O)[C@H]32)[C@@H](C)[C@@H]1O	2 µg/mL (≈ 2.96 µM)

tested on: Staphylococcus aureus; test: Antibacterial activity against methicillin-resistant Staphylococcus aureus ATCC 43300 assessed as inhibition of visible bacterial growth incubated for 24 hrs by CLSI based broth microdilution method; format: functional

Structure (SMILES)	MIC
C=C[C@]1(C)C[C@@H](OC(=O)CSc2nc(OC(=O)c3ccccc3)cs2)[C@]2(C)[C@H](C)CC[C@]3(CCC(=O)[C@H]32)[C@@H](C)[C@@H]1O	1 µg/mL (≈ 1.67 µM)
C=C[C@]1(C)C[C@@H](OC(=O)CSc2nc(OC(=O)c3cccc(OC)c3)cs2)[C@]2(C)[C@H](C)CC[C@]3(CCC(=O)[C@H]32)[C@@H](C)[C@@H]1O	1 µg/mL (≈ 1.59 µM)
C=C[C@]1(C)C[C@@H](OC(=O)CSc2nc(OC(=O)c3cccc(Br)c3)cs2)[C@]2(C)[C@H](C)CC[C@]3(CCC(=O)[C@H]32)[C@@H](C)[C@@H]1O	0.5 µg/mL (≈ 0.739 µM)
C=C[C@]1(C)C[C@@H](OC(=O)CSc2nc(OC(=O)c3cccc(Cl)c3)cs2)[C@]2(C)[C@H](C)CC[C@]3(CCC(=O)[C@H]32)[C@@H](C)[C@@H]1O	1 µg/mL (≈ 1.58 µM)
C=C[C@]1(C)C[C@@H](OC(=O)CSc2nc(OC(=O)C3CCCCC3)cs2)[C@]2(C)[C@H](C)CC[C@]3(CCC(=O)[C@H]32)[C@@H](C)[C@@H]1O	1 µg/mL (≈ 1.66 µM)
C=C[C@]1(C)C[C@@H](OC(=O)CSc2nc(OC(=O)C3CCC3)cs2)[C@]2(C)[C@H](C)CC[C@]3(CCC(=O)[C@H]32)[C@@H](C)[C@@H]1O	0.5 µg/mL (≈ 0.868 µM)
C=C[C@]1(C)C[C@@H](OC(=O)CSc2nc(OC(=O)c3ccccc3Br)cs2)[C@]2(C)[C@H](C)CC[C@]3(CCC(=O)[C@H]32)[C@@H](C)[C@@H]1O	0.5 µg/mL (≈ 0.739 µM)

tested on: Streptococcus agalactiae; test: Antibacterial activity against Streptococcus agalactiae assessed as inhibition of visible bacterial growth incubated for 24 hrs by CLSI based broth microdilution method; format: functional

Structure (SMILES)	MIC
C=C[C@]1(C)C[C@@H](OC(=O)CSc2nc(OC(=O)c3ccccc3)cs2)[C@]2(C)[C@H](C)CC[C@]3(CCC(=O)[C@H]32)[C@@H](C)[C@@H]1O	0.063 µg/mL (≈ 0.105 µM)
C=C[C@]1(C)C[C@@H](OC(=O)CSc2nc(OC(=O)c3cccc(OC)c3)cs2)[C@]2(C)[C@H](C)CC[C@]3(CCC(=O)[C@H]32)[C@@H](C)[C@@H]1O	0.063 µg/mL (≈ 0.1 µM)
C=C[C@]1(C)C[C@@H](OC(=O)CSc2nc(OC(=O)c3cccc(Br)c3)cs2)[C@]2(C)[C@H](C)CC[C@]3(CCC(=O)[C@H]32)[C@@H](C)[C@@H]1O	0.063 µg/mL (≈ 0.0931 µM)
C=C[C@]1(C)C[C@@H](OC(=O)CSc2nc(OC(=O)c3cccc(Cl)c3)cs2)[C@]2(C)[C@H](C)CC[C@]3(CCC(=O)[C@H]32)[C@@H](C)[C@@H]1O	0.063 µg/mL (≈ 0.0996 µM)
C=C[C@]1(C)C[C@@H](OC(=O)CSc2nc(OC(=O)C3CCCCC3)cs2)[C@]2(C)[C@H](C)CC[C@]3(CCC(=O)[C@H]32)[C@@H](C)[C@@H]1O	0.125 µg/mL (≈ 0.207 µM)
C=C[C@]1(C)C[C@@H](OC(=O)CSc2nc(OC(=O)C3CCC3)cs2)[C@]2(C)[C@H](C)CC[C@]3(CCC(=O)[C@H]32)[C@@H](C)[C@@H]1O	0.063 µg/mL (≈ 0.109 µM)
C=C[C@]1(C)C[C@@H](OC(=O)CSc2nc(OC(=O)c3ccccc3Br)cs2)[C@]2(C)[C@H](C)CC[C@]3(CCC(=O)[C@H]32)[C@@H](C)[C@@H]1O	0.063 µg/mL (≈ 0.0931 µM)

— ChEMBL document CHEMBL6103592, “Discovery of novel thiazole-pleuromutilin derivatives with potent antibacterial activity” (Eur J Med Chem, 2025)
